Laboratory results: article PMC8708872, “Discovery of a Novel Template, 7-Substituted 7-Deaza-4′-Thioadenosine Derivatives as Multi-Kinase Inhibitors” (Pharmaceuticals, 2021)
pIC50, pKi: −log10 of the molar value.

What was measured:
MLK1 = biological target: T1, MLK1 (Homo sapiens, UniProt P80192); assay: Kinome scan; format: binding; conditions: 1000 nM
T1 construct: purchased Eurofins DiscoverX Corporation
Description: (§1) The kinome scan assays were carried out at Eurofins DiscoverX Corporation. For kinome scan profiling of compound 1g, it was screened at 1μM against 96 kinases (N = 2 independent experiments). The results for binding interactions are reported as % inhibition, where higher values indicate strong affinity; see the Supporting Information, Table S1 for full kinome profile.

PIM1 = biological target: T2, PIM1 (Homo sapiens, UniProt P11309); assay: Kinome scan; format: binding; conditions: 1000 nM
T2 construct: purchased Eurofins DiscoverX Corporation
Description: as §1

RIOK2 = biological target: T3, RIOK2 (Homo sapiens, UniProt Q9BVS4); assay: Kinome scan; format: binding; conditions: 1000 nM
T3 construct: purchased Eurofins DiscoverX Corporation
Description: as §1

BRAF(V600E) = biological target: T4, BRAF(V600E) (Homo sapiens, UniProt P15056, V600E); assay: Kinome scan; format: binding; conditions: 1000 nM
T4 construct: purchased Eurofins DiscoverX Corporation
Description: as §1

AURKB = biological target: T5, AURKB (Homo sapiens, UniProt Q96GD4); assay: Kinome scan; format: binding; conditions: 1000 nM
T5 construct: purchased Eurofins DiscoverX Corporation
Description: as §1

[1] = biological target: T6, ABL1(T315I)-phosphorylated (Homo sapiens, UniProt P00519, T315I); assay: Kinome scan; format: binding; conditions: 1000 nM
T6 construct: purchased Eurofins DiscoverX Corporation
Description: as §1

SRC = biological target: T7, SRC (Homo sapiens, UniProt P12931); assay: Kinome scan; format: binding; conditions: 1000 nM
T7 construct: purchased Eurofins DiscoverX Corporation
Description: as §1

p38-beta = biological target: T8, p38-beta (Homo sapiens, UniProt Q15759); assay: Kinome scan; format: binding; conditions: 1000 nM
T8 construct: purchased Eurofins DiscoverX Corporation
Description: as §1

JNK2 = biological target: T9, JNK2 (Homo sapiens, UniProt P45984); assay: Kinome scan; format: binding; conditions: 1000 nM
T9 construct: purchased Eurofins DiscoverX Corporation
Description: as §1

Kinome scan = format: binding; conditions: 1000 nM, ZAP70 (Entrez gene symbol printed STK32C)
Description: as §1

PIK3CA = biological target: T10, PIK3CA (Homo sapiens, UniProt P42336); assay: Kinome scan; format: binding; conditions: 1000 nM
T10 construct: purchased Eurofins DiscoverX Corporation
Description: as §1

PRKCE = biological target: T11, PRKCE (Homo sapiens, UniProt Q02156); assay: Kinome scan; format: binding; conditions: 1000 nM
T11 construct: purchased Eurofins DiscoverX Corporation
Description: as §1

IKK-alpha = biological target: T12, IKK-alpha (Homo sapiens, UniProt O15111); assay: Kinome scan; format: binding; conditions: 1000 nM
T12 construct: purchased Eurofins DiscoverX Corporation
Description: as §1

CSNK1D = biological target: T13, CSNK1D (Homo sapiens, UniProt P48730); assay: Kinome scan; format: binding
T13 construct: purchased Eurofins DiscoverX Corporation
Description: as §1

[2] = biological target: T14, ABL1(E255K)-phosphorylated (Homo sapiens, UniProt P00519, E255K); assay: Kinome scan; format: binding; conditions: 1000 nM
T14 construct: purchased Eurofins DiscoverX Corporation
Description: as §1

PDPK1 = biological target: T15, PDPK1 (Homo sapiens, UniProt O15530); assay: Kinome scan; format: binding; conditions: 1000 nM
T15 construct: purchased Eurofins DiscoverX Corporation
Description: as §1

ABL1-nonphosphorylated = biological target: T16, ABL1-nonphosphorylated (Homo sapiens, UniProt P00519); assay: Kinome scan; format: binding; conditions: 1000 nM
T16 construct: purchased Eurofins DiscoverX Corporation
Description: as §1

p38-alpha = biological target: T17, p38-alpha (Homo sapiens, UniProt Q16539); assay: Kinome scan; format: binding; conditions: 1000 nM
T17 construct: purchased Eurofins DiscoverX Corporation
Description: as §1

ALK = biological target: T18, ALK (Homo sapiens, UniProt Q9UM73); assay: Kinome scan; format: binding; conditions: 1000 nM
T18 construct: purchased Eurofins DiscoverX Corporation
Description: as §1

CDK11 = biological target: T19, CDK11 (Homo sapiens, UniProt Q9BWU1); assay: Kinome scan; format: binding; conditions: 1000 nM
T19 construct: purchased Eurofins DiscoverX Corporation
Description: as §1

EGFR(L858R) = biological target: T20, EGFR(L858R) (Homo sapiens, UniProt P00533, L858R); assay: Kinome scan; format: binding; conditions: 1000 nM
T20 construct: purchased Eurofins DiscoverX Corporation
Description: as §1

ROCK2 = biological target: T21, ROCK2 (Homo sapiens, UniProt O75116); assay: Kinome scan; format: binding; conditions: 1000 nM
T21 construct: purchased Eurofins DiscoverX Corporation
Description: as §1

EPHA2 = biological target: T22, EPHA2 (Homo sapiens, UniProt P29317); assay: Kinome scan; format: binding; conditions: 1000 nM
T22 construct: purchased Eurofins DiscoverX Corporation
Description: as §1

PLK4 = biological target: T23, PLK4 (Homo sapiens, UniProt O00444); assay: Kinome scan; format: binding; conditions: 1000 nM
T23 construct: purchased Eurofins DiscoverX Corporation
Description: as §1

MET = biological target: T24, MET (Homo sapiens, UniProt P08581); assay: Kinome scan; format: binding; conditions: 1000 nM
T24 construct: purchased Eurofins DiscoverX Corporation
Description: as §1

CDK3 = biological target: T25, CDK3 (Homo sapiens, UniProt Q00526); assay: Kinome scan; format: binding; conditions: 1000 nM
T25 construct: purchased Eurofins DiscoverX Corporation
Description: as §1

DYRK1B = biological target: T26, DYRK1B (Homo sapiens, UniProt Q9Y463); assay: Kinome scan; format: binding
T26 construct: purchased Eurofins DiscoverX Corporation
Description: as §1

TGFBR1 = biological target: T27, TGFBR1 (Homo sapiens, UniProt P36897); assay: Kinome scan; format: binding; conditions: 1000 nM
T27 construct: purchased Eurofins DiscoverX Corporation
Description: as §1

MEK2 = biological target: T28, MEK2 (Homo sapiens, UniProt P36507); assay: Kinome scan; format: binding; conditions: 1000 nM
T28 construct: purchased Eurofins DiscoverX Corporation
Description: as §1

LKB1 = biological target: T29, LKB1 (Homo sapiens, UniProt Q15831); assay: Kinome scan; format: binding; conditions: 1000 nM
T29 construct: purchased Eurofins DiscoverX Corporation
Description: as §1

PLK3 = biological target: T30, PLK3 (Homo sapiens, UniProt Q9H4B4); assay: Kinome scan; format: binding; conditions: 1000 nM
T30 construct: purchased Eurofins DiscoverX Corporation
Description: as §1

ABL1-phosphorylated = biological target: T31, ABL1-phosphorylated (Homo sapiens, UniProt P00519); assay: Kinome scan; format: binding; conditions: 1000 nM
T31 construct: purchased Eurofins DiscoverX Corporation
Description: as §1

ACVR1B = biological target: T32, ACVR1B (Homo sapiens, UniProt P36896); assay: Kinome scan; format: binding; conditions: 1000 nM
T32 construct: purchased Eurofins DiscoverX Corporation
Description: as §1

ULK2 = biological target: T33, ULK2 (Homo sapiens, UniProt Q8IYT8); assay: Kinome scan; format: binding; conditions: 1000 nM
T33 construct: purchased Eurofins DiscoverX Corporation
Description: as §1

EGFR = biological target: T34, EGFR (Homo sapiens, UniProt P00533); assay: Kinome scan; format: binding; conditions: 1000 nM
T34 construct: purchased Eurofins DiscoverX Corporation
Description: as §1

KIT(D816V) = biological target: T35, KIT(D816V) (Homo sapiens, UniProt P10721, D816V); assay: Kinome scan; format: binding; conditions: 1000 nM
T35 construct: purchased Eurofins DiscoverX Corporation
Description: as §1

MARK3 = biological target: T36, MARK3 (Homo sapiens, UniProt P27448); assay: Kinome scan; format: binding; conditions: 1000 nM
T36 construct: purchased Eurofins DiscoverX Corporation
Description: as §1

[3] = biological target: T37, RSK2(Kin.Dom.1-N-terminal) (Homo sapiens, UniProt P51812); assay: Kinome scan; format: binding; conditions: 1000 nM
T37 construct: RSK2(Kin.Dom.1-N-terminal); purchased Eurofins DiscoverX Corporation
Description: as §1

AURKA = biological target: T38, AURKA (Homo sapiens, UniProt O14965); assay: Kinome scan; format: binding; conditions: 1000 nM
T38 construct: purchased Eurofins DiscoverX Corporation
Description: as §1

[4] = Metabolic stability in human liver microsomes; format: in vitro ADME; conditions: % remaining during 30 min, 1 μM
DYRK1A = biological target: T39, DYRK1A (Homo sapiens, UniProt Q13627); assay: Kinase inhibition profile, KINOMEscan 11-point dose response; format: binding
T39 construct: purchased Eurofins DiscoverX Corporation

T26 sequence (Q9Y463 whole entry): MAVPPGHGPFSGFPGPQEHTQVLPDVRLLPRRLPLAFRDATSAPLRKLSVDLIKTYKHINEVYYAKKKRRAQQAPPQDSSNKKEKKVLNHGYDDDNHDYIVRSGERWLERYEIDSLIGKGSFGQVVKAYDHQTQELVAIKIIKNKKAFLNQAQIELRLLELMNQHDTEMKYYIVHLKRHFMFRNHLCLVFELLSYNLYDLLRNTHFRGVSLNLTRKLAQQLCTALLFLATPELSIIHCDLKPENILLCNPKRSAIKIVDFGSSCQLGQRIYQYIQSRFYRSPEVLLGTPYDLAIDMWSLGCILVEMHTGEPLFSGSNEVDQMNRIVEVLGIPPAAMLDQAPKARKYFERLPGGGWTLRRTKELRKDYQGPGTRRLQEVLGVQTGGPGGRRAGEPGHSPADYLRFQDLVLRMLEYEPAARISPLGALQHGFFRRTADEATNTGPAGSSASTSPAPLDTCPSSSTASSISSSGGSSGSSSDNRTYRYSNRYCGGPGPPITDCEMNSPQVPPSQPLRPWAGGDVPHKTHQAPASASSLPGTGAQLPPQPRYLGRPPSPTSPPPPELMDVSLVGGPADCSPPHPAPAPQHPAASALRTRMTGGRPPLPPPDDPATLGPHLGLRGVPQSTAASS
T13 sequence (P48730 whole entry): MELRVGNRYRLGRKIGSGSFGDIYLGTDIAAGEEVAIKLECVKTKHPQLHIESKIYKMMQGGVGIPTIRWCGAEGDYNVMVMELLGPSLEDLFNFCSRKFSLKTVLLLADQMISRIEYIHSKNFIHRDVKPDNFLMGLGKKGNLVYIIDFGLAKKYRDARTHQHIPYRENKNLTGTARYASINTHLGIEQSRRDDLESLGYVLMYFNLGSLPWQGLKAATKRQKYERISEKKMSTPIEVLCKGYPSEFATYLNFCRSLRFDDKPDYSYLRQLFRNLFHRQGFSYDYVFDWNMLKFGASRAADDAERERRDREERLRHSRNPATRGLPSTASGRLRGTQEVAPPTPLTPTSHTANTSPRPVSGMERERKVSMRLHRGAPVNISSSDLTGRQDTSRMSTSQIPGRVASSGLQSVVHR
T21 sequence (O75116 whole entry): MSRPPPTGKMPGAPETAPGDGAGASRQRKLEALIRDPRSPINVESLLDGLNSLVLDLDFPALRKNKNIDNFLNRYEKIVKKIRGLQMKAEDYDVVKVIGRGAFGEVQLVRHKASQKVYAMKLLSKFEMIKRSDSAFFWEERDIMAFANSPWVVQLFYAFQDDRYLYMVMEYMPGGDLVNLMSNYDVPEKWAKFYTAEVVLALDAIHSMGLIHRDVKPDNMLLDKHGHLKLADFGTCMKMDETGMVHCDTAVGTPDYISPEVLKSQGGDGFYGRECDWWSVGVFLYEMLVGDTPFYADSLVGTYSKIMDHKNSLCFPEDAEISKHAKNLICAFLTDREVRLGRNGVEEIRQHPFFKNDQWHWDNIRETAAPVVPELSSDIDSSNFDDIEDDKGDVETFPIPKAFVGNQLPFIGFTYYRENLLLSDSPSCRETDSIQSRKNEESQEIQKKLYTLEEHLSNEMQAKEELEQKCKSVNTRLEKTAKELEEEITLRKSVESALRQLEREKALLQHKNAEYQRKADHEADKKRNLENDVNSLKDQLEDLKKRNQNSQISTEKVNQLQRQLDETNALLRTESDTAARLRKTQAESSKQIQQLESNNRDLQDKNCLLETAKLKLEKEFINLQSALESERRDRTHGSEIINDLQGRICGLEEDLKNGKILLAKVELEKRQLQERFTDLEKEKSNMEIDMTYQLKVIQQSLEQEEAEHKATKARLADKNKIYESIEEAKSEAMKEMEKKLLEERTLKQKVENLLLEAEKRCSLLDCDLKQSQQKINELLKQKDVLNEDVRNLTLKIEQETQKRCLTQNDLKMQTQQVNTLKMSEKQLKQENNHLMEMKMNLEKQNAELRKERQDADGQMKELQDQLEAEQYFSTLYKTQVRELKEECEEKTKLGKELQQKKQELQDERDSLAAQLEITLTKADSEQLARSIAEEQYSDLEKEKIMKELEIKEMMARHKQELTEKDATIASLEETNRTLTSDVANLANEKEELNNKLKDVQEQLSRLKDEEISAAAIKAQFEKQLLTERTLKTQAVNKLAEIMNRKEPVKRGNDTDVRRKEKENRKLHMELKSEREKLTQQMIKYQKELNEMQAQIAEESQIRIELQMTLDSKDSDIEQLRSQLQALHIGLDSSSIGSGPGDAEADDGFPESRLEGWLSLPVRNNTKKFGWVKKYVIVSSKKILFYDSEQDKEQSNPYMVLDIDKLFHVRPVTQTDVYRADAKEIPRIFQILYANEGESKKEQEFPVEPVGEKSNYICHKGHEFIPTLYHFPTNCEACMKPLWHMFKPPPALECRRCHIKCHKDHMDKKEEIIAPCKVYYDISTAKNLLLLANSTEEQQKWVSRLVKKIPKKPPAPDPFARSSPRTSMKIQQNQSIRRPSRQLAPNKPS
T12 sequence (O15111 whole entry): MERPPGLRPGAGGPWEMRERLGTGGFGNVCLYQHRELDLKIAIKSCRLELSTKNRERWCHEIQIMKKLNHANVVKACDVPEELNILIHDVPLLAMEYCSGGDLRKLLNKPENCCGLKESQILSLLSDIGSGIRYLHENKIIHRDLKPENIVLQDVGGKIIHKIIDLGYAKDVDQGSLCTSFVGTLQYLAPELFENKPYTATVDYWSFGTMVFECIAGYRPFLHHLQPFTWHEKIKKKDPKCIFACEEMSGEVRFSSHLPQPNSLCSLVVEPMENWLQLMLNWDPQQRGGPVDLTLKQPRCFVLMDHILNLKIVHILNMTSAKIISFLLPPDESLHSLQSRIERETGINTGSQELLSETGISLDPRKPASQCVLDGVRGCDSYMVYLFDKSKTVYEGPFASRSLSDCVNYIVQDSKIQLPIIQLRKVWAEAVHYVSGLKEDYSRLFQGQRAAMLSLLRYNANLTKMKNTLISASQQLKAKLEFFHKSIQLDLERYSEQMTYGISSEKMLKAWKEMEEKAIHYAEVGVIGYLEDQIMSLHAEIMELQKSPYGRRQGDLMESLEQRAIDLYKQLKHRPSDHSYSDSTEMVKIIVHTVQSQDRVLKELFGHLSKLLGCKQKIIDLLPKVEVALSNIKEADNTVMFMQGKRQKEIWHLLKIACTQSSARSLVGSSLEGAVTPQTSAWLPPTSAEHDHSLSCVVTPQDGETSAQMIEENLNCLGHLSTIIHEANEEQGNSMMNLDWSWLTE
T15 sequence (O15530 whole entry): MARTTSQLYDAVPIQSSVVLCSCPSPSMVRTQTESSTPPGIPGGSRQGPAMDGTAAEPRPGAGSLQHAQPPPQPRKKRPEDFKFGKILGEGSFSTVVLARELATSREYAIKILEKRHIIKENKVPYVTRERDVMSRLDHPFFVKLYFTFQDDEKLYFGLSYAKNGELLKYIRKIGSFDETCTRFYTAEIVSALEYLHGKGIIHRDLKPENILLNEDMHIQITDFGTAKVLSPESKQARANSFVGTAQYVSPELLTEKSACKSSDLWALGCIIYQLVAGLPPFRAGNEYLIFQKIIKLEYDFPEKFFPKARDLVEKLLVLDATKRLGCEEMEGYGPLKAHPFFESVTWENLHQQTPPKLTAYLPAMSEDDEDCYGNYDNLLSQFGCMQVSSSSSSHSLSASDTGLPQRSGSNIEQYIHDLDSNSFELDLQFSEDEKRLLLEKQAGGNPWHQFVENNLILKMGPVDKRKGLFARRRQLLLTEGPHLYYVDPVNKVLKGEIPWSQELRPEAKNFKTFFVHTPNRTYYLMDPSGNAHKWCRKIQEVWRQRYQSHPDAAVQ
T4 sequence (P15056 whole entry V600E): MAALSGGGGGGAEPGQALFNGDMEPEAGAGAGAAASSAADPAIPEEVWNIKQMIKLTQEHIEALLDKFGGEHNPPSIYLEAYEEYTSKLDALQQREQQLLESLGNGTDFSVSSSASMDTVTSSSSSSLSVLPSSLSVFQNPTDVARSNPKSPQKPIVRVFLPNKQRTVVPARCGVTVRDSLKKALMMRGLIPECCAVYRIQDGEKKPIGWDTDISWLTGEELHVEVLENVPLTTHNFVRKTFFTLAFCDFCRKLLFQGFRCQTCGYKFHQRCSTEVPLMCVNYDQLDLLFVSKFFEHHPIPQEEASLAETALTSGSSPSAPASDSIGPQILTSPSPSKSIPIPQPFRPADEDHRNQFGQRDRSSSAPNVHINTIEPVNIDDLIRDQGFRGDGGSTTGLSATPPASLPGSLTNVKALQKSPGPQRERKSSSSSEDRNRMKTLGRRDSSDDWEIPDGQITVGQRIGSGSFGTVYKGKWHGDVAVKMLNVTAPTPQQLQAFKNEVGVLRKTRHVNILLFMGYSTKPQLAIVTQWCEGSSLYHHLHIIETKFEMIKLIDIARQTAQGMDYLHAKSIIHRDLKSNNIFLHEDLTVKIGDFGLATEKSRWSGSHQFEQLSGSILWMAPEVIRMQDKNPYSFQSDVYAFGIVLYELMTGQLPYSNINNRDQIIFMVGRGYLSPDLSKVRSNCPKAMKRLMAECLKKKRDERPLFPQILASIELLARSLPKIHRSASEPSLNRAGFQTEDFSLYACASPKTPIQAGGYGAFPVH
T25 sequence (Q00526 whole entry): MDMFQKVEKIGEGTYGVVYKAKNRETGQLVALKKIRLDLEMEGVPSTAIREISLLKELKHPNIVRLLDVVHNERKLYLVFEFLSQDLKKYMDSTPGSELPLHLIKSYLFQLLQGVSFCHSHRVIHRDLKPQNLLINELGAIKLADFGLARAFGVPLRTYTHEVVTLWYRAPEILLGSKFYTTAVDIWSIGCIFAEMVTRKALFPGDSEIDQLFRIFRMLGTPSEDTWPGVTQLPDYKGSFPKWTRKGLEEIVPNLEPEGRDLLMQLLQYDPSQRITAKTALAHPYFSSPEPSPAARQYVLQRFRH

inhibition at 1 µM (MLK1): 7% | inhibition at 1 µM (PIM1): 37% | inhibition at 1 µM (RIOK2): 0% | inhibition at 1 µM (BRAF(V600E)): 0% | inhibition at 1 µM (AURKB): 0% | inhibition at 1 µM [1]: 65% | inhibition at 1 µM (SRC): 6% | inhibition at 1 µM (p38-beta): 3% | inhibition at 1 µM (JNK2): 0% | inhibition at 1 µM (PIK3CA): 7% | inhibition at 1 µM (PRKCE): 0% | inhibition at 1 µM (IKK-alpha): 10% | remaining binding at 1 µM (CSNK1D; 1 μM, read-out: activity remaining, CK1δ (CSNK1D)): < 20% | inhibition at 1 µM (CSNK1D; 1000 nM, CSNK1D): 91.3% | inhibition at 1 µM [2]: 18% | inhibition at 1 µM (PDPK1): 11% | inhibition at 1 µM (ABL1-nonphosphorylated): 39% | inhibition at 1 µM (p38-alpha): 11% | inhibition at 1 µM (ALK): 31% | inhibition at 1 µM (CDK11): 72.1% | inhibition at 1 µM (EGFR(L858R)): 0% | inhibition at 1 µM (ROCK2): 27% | inhibition at 1 µM (EPHA2): 28% | inhibition at 1 µM (PLK4): 0% | inhibition at 1 µM (MET): 4% | inhibition at 1 µM (CDK3): 18% | remaining binding at 1 µM (DYRK1B; 1 μM): < 20% | inhibition at 1 µM (DYRK1B; 1000 nM, DYRK1B): 83% | inhibition at 1 µM (TGFBR1): 11% | inhibition at 1 µM (MEK2): 69% | inhibition at 1 µM (LKB1): 2% | inhibition at 1 µM (PLK3): 0% | inhibition at 1 µM (ABL1-phosphorylated): 35% | inhibition at 1 µM (ACVR1B): 29% | inhibition at 1 µM (ULK2): 0% | inhibition at 1 µM (EGFR): 0% | inhibition at 1 µM (KIT(D816V)): 22% | inhibition at 1 µM (MARK3): 0% | inhibition at 1 µM [3]: 55% | inhibition at 1 µM (AURKA): 22% | Metabolic Stability (%) [4]: 82.3% | pIC50 (DYRK1A; 11-point 3-fold serial dilution): 7.37 | pKi (DYRK1A; by Cheng-Prusoff equation): 7.07
Compound: C#Cc1cn([C@@H]2S[C@H](CO)[C@@H](O)[C@H]2O)c2ncnc(N)c12 [Compound 1g, (2R,3R,4S,5R)-2-(4-Amino-5-ethynyl-7H-pyrrolo[2,3-d]pyrimidin-7-yl)-5-(hydroxymethyl)tetrahydrothiophene-3,4-diol]
% inhibition (Kinome scan): 0.0%
